As a reminder, the IC50 is the midpoint of a concentration-inhibition curve. Read a high IC50 as lower potency. For orientation: inhibition means the relative decrease from the control value, in per cent. Read a high inhibition as a response far below the control.

The values below come from ChEMBL document CHEMBL1128999, “Synthesis and evaluation of 2-aryl-4H-3,1-benzoxazin-4-ones as C1r serine protease inhibitors” (Bioorg Med Chem Lett, 1996).

In assay [1] the target is T1, Complement C1r subcomponent (Homo sapiens, UniProt P00736).
T1 sequence (P00736 whole entry): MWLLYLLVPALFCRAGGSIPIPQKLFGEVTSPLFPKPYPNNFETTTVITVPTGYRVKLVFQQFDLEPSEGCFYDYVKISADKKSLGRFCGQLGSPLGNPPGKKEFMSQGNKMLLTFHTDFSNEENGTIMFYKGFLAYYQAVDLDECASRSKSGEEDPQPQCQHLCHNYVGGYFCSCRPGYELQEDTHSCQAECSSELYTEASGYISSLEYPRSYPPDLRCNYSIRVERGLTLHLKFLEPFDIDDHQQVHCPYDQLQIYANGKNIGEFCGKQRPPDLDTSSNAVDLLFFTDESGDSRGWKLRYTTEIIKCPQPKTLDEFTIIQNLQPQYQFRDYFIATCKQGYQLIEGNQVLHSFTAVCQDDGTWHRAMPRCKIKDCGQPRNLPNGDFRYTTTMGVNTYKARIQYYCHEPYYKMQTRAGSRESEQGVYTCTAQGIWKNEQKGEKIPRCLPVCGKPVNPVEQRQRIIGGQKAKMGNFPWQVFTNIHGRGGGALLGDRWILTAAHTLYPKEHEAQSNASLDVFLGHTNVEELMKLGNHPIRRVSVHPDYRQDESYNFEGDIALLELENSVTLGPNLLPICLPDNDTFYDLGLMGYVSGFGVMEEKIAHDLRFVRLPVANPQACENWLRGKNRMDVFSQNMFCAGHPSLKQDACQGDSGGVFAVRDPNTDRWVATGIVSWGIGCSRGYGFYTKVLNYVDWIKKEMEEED
The assay can be described thus: (§1) Inhibitory activity against C1r serine protease.

Assay [2] concerns the target T1, Complement C1r subcomponent. The description is as §1. This is another data set of the same source.
Assay [3] shares this target. The assay can be described thus: Inhibition of C1r serine protease.
Assay [4] deals with T2, Complement C1r subcomponent (Homo sapiens) (UniProt P00736).
T2 sequence (whole entry): T1 sequence (P00736 whole entry)
The assay is described as follows: Compound was evaluated for percentage inhibitory activity against C1r serine protease in assay 1 at a concentration of 10 uM.

In assay [5] the target is T2, Complement C1r subcomponent (Homo sapiens). The conditions noted are these: at 10 µM.
Assay [6] has as its target Kallikrein-1 (Homo sapiens, UniProt P06870). The assay is described as follows: Compound was evaluated for inhibitory activity against Kallikrein.
The target of assay [7] is T1, Complement C1r subcomponent. The assay is described as follows: Compound was evaluated for inhibitory activity against C1r serine protease.
Assay [8] has as its target Prothrombin (Homo sapiens, UniProt P00734). The assay is described as follows: Compound was evaluated for inhibitory activity against Thrombin.
In assay [9] the target is T3, Complement C1s subcomponent (Homo sapiens, UniProt P09871).
T3 sequence (P09871 whole entry): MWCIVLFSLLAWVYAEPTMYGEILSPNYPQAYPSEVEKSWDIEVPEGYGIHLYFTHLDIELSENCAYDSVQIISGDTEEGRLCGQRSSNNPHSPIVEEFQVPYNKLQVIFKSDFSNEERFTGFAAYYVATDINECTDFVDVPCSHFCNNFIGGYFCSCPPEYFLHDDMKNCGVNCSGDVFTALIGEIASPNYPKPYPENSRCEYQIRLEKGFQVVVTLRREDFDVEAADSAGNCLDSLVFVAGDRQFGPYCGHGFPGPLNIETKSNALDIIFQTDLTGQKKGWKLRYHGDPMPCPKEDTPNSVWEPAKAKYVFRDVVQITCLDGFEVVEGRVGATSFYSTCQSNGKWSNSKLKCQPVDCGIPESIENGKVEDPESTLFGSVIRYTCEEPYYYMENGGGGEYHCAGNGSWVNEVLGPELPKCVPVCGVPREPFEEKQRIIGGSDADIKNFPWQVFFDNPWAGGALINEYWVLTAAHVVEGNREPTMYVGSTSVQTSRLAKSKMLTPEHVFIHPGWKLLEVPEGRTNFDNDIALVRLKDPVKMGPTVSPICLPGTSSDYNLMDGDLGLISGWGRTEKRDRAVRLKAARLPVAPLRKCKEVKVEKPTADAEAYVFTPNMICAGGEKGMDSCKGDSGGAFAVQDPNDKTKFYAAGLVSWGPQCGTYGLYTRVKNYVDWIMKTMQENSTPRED
The assay can be described thus: Compound was evaluated for inhibitory activity against C1s serine protease.

For assay [10], the target named is Serine protease 1 (Homo sapiens, UniProt P07477). The assay is described as follows: Compound was evaluated for inhibitory activity against Trypsin.
The target in assay [11] is T1, Complement C1r subcomponent. The assay can be described thus: Compound was evaluated for inhibitory activity against C1r serine protease in assay 2 at t=60 min.
The target of assay [12] is Plasminogen (Homo sapiens, UniProt P00747). The assay can be described thus: Compound was evaluated for inhibitory activity against plasmin.
The target of assay [13] is T1, Complement C1r subcomponent. The assay is described as follows: Compound was evaluated for inhibitory activity against C1r serine protease in assay 1.

Sequence of Kallikrein-1 (P06870 whole entry): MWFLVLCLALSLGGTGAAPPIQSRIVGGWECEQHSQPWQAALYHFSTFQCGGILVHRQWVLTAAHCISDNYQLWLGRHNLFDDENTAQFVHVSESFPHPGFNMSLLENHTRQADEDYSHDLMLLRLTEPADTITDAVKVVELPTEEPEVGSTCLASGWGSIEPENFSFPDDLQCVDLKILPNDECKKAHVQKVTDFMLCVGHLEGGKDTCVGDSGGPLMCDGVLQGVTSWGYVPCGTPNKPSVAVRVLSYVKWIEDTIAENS
Sequence of Serine protease 1 (P07477 whole entry): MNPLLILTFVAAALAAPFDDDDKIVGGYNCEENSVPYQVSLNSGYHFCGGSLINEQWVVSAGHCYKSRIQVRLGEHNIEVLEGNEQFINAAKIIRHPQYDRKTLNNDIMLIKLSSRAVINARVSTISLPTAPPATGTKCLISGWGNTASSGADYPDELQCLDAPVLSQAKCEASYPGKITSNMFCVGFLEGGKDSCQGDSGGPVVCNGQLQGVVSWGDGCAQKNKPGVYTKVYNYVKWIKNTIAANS
Sequence of Plasminogen (P00747 97-580 limits assumed): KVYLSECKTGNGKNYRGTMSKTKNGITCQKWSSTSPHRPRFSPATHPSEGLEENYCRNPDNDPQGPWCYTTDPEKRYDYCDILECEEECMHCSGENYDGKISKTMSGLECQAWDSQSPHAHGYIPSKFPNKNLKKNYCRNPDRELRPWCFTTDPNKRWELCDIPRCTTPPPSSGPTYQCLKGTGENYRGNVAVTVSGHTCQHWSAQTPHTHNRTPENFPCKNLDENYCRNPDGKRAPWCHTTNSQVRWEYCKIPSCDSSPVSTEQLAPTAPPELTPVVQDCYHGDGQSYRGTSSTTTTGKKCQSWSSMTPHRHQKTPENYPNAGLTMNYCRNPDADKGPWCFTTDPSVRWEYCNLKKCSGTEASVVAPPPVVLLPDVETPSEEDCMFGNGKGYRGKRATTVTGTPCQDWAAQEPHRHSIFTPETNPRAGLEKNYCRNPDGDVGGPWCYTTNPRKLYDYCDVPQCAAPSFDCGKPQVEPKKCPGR
Sequence of Plasminogen (P00747 581-810 limits assumed): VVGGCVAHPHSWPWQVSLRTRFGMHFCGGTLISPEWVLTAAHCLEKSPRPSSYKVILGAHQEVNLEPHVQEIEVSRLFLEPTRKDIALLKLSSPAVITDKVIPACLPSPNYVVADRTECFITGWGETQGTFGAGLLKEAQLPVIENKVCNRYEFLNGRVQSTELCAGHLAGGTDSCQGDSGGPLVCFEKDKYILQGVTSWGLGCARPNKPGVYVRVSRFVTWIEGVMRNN

Take `O=c1oc(-c2ccccc2I)nc2cc3ccccc3cc12`: the results for the concentration for half-maximal inhibition (IC50) in assay [1], in [2] and in assay [3] were > 62.5 µM, > 62.5 µM and 0.7 µM, respectively.

Consider `COc1ccc2c(=O)oc(-c3ccccc3I)nc2c1`, for which the IC50 in assay [1] and in assay [2] was > 62.5 µM each time. In addition, the inhibition in assay [4] came out at 27%.

Consider `O=c1oc(-c2ccccc2I)nc2ccc(Cl)cc12`, for which the IC50 in assay [1] came out at 27.3 µM; in [2], 7.8 µM; in [3], 3 µM.

For `O=c1oc(Cc2ccccc2I)nc2ccccc12`, the concentration for half-maximal inhibition (IC50) was determined as 40 µM in assay [1], 26 µM in assay [2] and 6 µM in [3].

`COc1cc2nc(-c3ccccc3I)oc(=O)c2cc1OC`: the half-maximal inhibitory concentration (IC50) in assay [1] and in assay [2] was > 62.5 µM each time. Further, in assay [4], the inhibition was found to be 18%.

In the case of `O=c1oc(-c2ccccc2I)nc2cc([N+](=O)[O-])ccc12`, the IC50 in assay [1] was > 62.5 µM; in [2], 22 µM. The molecule also yielded an inhibition in assay [5] of 0%.

`N=C(N)c1ccc2cc(OC(=O)c3ccc(N=C(N)N)cc3)ccc2c1` [NAFAMOSTAT]: the 50% inhibitory concentration (IC50) came out at 0.65 µM in assay [6]; 1.04 µM in assay [7]; 0.29 µM in assay [8]; 0.14 µM in [9]; 12 µM in assay [1]; 1 µM in [3].

As to `O=c1oc(-c2ccccc2I)nc2cccc(Cl)c12`, the values for the IC50 in assay [1], in assay [2] and in assay [3] were 57 µM, 13.5 µM and 3 µM, respectively.

With `COc1ccc2nc(-c3ccccc3I)oc(=O)c2c1`, the results for the 50% inhibitory concentration (IC50) in assay [1], in [2] and in assay [3] were > 62.5 µM, > 62.5 µM and 5 µM, respectively.

Regarding `O=c1oc(-c2ccccc2C(F)(F)F)nc2ccccc12`, the IC50 in [1] is > 62.5 µM; in assay [2] it was 35.4 µM; in [3], 4.2 µM.

On to `O=C(O)c1ccccc1-c1nc2ccccc2c(=O)o1`, for which the IC50 in assay [1] and in assay [2] was > 62.5 µM in each case. In assay [5], the inhibition amounted to 25%.

Consider `O=c1oc(-c2ccccc2Br)nc2ccccc12`, for which the IC50 in [1] is 46 µM; in [2], 32 µM; in [3], 9.5 µM.

With `O=c1oc(-c2ccccc2[N+](=O)[O-])nc2ccccc12`, the values for the IC50 in [1], in [2] and in assay [3] were > 62.5 µM, 15 µM and 36.3 µM, respectively.

For `O=c1oc(-c2ccccc2I)nc2ccccc12`, the IC50 in assay [10] amounted to 15.3 µM; in assay [6], 9.89 µM; in assay [7], 1.37 µM; in [8], 0.51 µM; in assay [9], 1.25 µM; in [11], 50 µM. Also, the IC50 is 16.7 µM in assay [2], 6.68 µM in assay [12] and 1.4 µM in assay [13].

As to `O=c1oc(-c2ccccc2I)nc2cc(Cl)c(Cl)cc12`, the IC50 in assay [1] was > 62.5 µM; in assay [2], > 62.5 µM; in assay [3], 1.7 µM.
